Results reported in PubChem BioAssay (NCI).
“And” between values parts separate entries of the source, which are not always exact repeats. Equal entries are not always repeated.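 The compound was tested at five concentrations on cells cultured in 96-well plates, with a 48-hour exposure period. Here, GI50 denotes the concentration required for 50% inhibition of growth. TGI: concentration producing complete growth inhibition.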 Where a SMILES comes first, the peptide text is derived from it.

Key:
Test in all cases: NCI-60 cell line screen, 48 h
CCRF-CEM leukemia = test system: CCRF-CEM leukemia
OVCAR-4 ovarian = test system: OVCAR-4 ovarian
OVCAR-3 ovarian = test system: OVCAR-3 ovarian
SF-539 CNS = test system: SF-539 CNS
RPMI-8226 leukemia = test system: RPMI-8226 leukemia

Compound	TGI (CCRF-CEM leukemia)	TGI (OVCAR-4 ovarian)	TGI (OVCAR-3 ovarian)	TGI (SF-539 CNS)	TGI (RPMI-8226 leukemia)	GI50 (OVCAR-3 ovarian) [µM]	GI50 (SF-539 CNS) [µM]	GI50 (CCRF-CEM leukemia) [µM]
COc1cc(S(=O)(=O)Nc2nc(-c3ccc(N)cc3)cs2)ccc1Cl	> 100 µM	> 100 µM	> 100 µM	> 100 µM				
NNc1ccccc1Cl	> 100 µM	> 100 µM	> 100 µM	> 100 µM	> 100 µM			
CC1(c2nc3ccccc3[nH]2)CCC(C(N)=O)C(C)(C)O1 (stereo not given)	> 100 µM	> 100 µM	> 100 µM	> 100 µM	> 100 µM			
Cc1c2cccc-2ccc2c1[nH]c1ccc(Br)cc12	90.9 µM	6.62 µM	13.9 µM	19.1 µM	10.2 µM			
COc1ccc([C@H]2C=C(c3cc(F)c(Cl)cc3Cl)NC(=S)N2)cc1	> 100 µM	> 100 µM	> 100 µM	> 100 µM	76 µM			
CCN(CC)CCn1c2cc3c(cc2c(=O)c2cccnc21)OCO3	> 10 µM	> 10 µM	> 10 µM	> 10 µM	> 10 µM			
Cc1cc(S(=O)(=O)n2ccnc2Oc2ccccc2)c(SSc2cc(Cl)c(C)cc2S(=O)(=O)n2ccnc2Oc2ccccc2)cc1Cl		> 100 µM	> 100 µM	> 100 µM	> 100 µM			
COc1ccc2c(c1)CC[C@@H]1[C@@H]2CC[C@]2(C)C(=O)/C(=C/c3ccncc3)C[C@@H]12	> 100 µM	> 100 µM	44.2 µM	55.1 µM	> 100 µM			
CC(C)c1c(O[Si](C(C)C)(C(C)C)C(C)C)c2c3c(ccc4c3c1OC4(C)C)C(C)CC2 (stereo not given)	> 100 µM	> 100 µM	> 100 µM	> 100 µM	> 100 µM			
CC1=C(C#N)C2C(=C(N)Oc3ccccc32)C(N)=N1 (stereo not given)	> 100 µM	77.7 µM	> 100 µM	61.3 µM	77.3 µM			
C/C1=C\[C@H](C)C[C@H](C)OC(=O)C[C@H](c2ccc(O)cc2)NC(=O)[C@H](Cc2ccc(O)c(Br)c2)N(C)C(=O)[C@H](C)NC(=O)[C@@H](C)C1	> 25 µM	> 25 µM	> 25 µM		> 25 µM			
COc1ccc(OC)c(-c2nc3ccccc3c(=O)[nH]2)c1	> 100 µM	> 100 µM	> 100 µM	> 100 µM	> 100 µM			
O=C(/C=C\c1ccccc1)Oc1ccc(/C=C2\CCCCC2=O)cc1	27.2 µM	> 100 µM	> 100 µM	> 100 µM	50.6 µM			
CC(=O)c1nc2ccccc2n1CC(=O)c1ccc(Cl)cc1	> 100 µM	> 100 µM	23.2 µM	> 100 µM	> 100 µM			
Cc1cc2c(cc1C)C(=O)C1(C2)Cc2c(ccc(C)c2C)C1=O (stereo not given)	> 100 µM	> 100 µM	> 100 µM	> 100 µM	> 100 µM			
Cc1ccc(CC2(OCCN(C)C)CCC(C(C)(C)C)CC2)cc1 (stereo not given)	7.46 µM and 7.98 µM	15.2 µM and 16.6 µM	25.8 µM and 27.2 µM	4.55 µM and 8.81 µM	4 µM and 4.96 µM			
O=c1cc(-c2ccccc2)oc2ccc(-c3ccc4oc(-c5ccccc5)cc(=O)c4c3)cc12	43.7 µM	38.9 µM		30.8 µM	32.6 µM			
O=C(Nc1nnc(-c2c(Cl)c(Cl)c(Cl)c(Cl)c2-c2nc3cc(C(=O)c4ccccc4)ccc3[nH]2)o1)c1ccccc1	20.8 µM	95.1 µM	44.7 µM	23.7 µM	30.4 µM			
CN1C(=O)c2c(c3c4ccccc4n(C4OC(CO)C(O)C(O)C4O)c3c3[nH]c4ccccc4c23)C1=O (stereo not given)	1.68 µM	6.36 µM	5.37 µM	4.7 µM	59.8 µM			
CC(=O)NC(CS)C(=O)NC(CO)C(=O)NC(CO)C(=O)NC(Cc1c[nH]c2ccccc12)C(=O)N1CCCC1C(=O)NC(CO)C(=O)NC(Cc1c[nH]c2ccccc12)C(=O)NC(Cc1c[nH]cn1)C(=O)NC(CO)C(=O)NC(Cc1c[nH]c2ccccc12)C(=O)NCC(=O)NCC(=O)NC(CC(=O)O)C(=O)NC(CCC(N)=O)C(=O)NC(CCCCN)C(=O)NC(Cc1ccccc1)C(=O)NC(CCCNC(=N)N)C(=O)NC(CCCCN)C(N)=O (stereo not given) (Ac-CSSWPSWHSWGGDQKFRK-NH2; configuration not given here)	> 25 µM	> 25 µM	> 25 µM	> 25 µM	> 25 µM			
CC#Cc1cc2c(cc1O)CC[C@@H]1[C@@H]2CC[C@]2(C)[C@@H](O)CC[C@@H]12	> 100 µM	62 µM	3.26 µM	6.04 µM	> 66.1 µM	0.337	0.939	
c1ccc(N=c2sc3ccccc3sc2=Nc2ccccc2)cc1	> 100 µM	3.68 µM		3.42 µM	> 100 µM			

Compound	TGI (CCRF-CEM leukemia)	TGI (OVCAR-4 ovarian)	TGI (OVCAR-3 ovarian)	TGI (SF-539 CNS)	TGI (RPMI-8226 leukemia)	GI50 (OVCAR-3 ovarian) [µM]	GI50 (SF-539 CNS) [µM]	GI50 (CCRF-CEM leukemia) [µM]
COc1ccc(C2CC(c3ccc4ccccc4c3O)=NN2C(C)=O)cc1OC (stereo not given)	> 100 µM	> 100 µM	> 100 µM	> 100 µM	> 100 µM			
CCOC(=O)CCC(C(=O)OCC)n1nnc2ccc(Nc3c(C)[n+]([O-])c4cc(Cl)ccc4[n+]3[O-])cc21 (stereo not given)	> 100 µM	39.1 µM	34.4 µM	39.9 µM	47 µM			
COC(=O)n1c(=O)n(-c2ccccc2)c(=O)n1C(=O)Nc1ccccc1	> 100 µM	87.8 µM	> 100 µM		> 100 µM			
Cc1cc(S(=O)(=O)NC2=NC(c3ccccc3)c3ccccc3N2)c(S)cc1Cl (stereo not given)	> 100 µM	> 100 µM	> 100 µM	> 100 µM	> 100 µM			
CC(C)(C)CC(C)(C)N=C(N)NO	> 100 µM	> 100 µM	> 100 µM	> 100 µM	> 100 µM			
S=C(N/N=C(/c1ccccc1)c1ccccn1)Nc1ccc(Cl)cc1	2.26 µM	14.2 µM	11.6 µM	8.55 µM	> 25.9 µM			
NC1CC(=O)c2csc(Cl)c21 (stereo not given)	3.68 µM	68.8 µM	30.9 µM	9.56 µM				
CC(C)Oc1ccc(CNC2=NCCO2)c2ccccc12	30.4 µM	31.1 µM		24 µM	28.3 µM			
C/C=C/C(C#N)(Cc1ccccc1)OP1(=O)OC(c2ccccc2)C(C)N1C (stereo not given)	41.2 µM		> 100 µM	> 100 µM	> 100 µM			
CN1CCCC1=NC#N	> 100 µM	> 100 µM	> 100 µM	> 100 µM	> 100 µM			
COC(=O)[C@]12CCC(C)(C)C[C@H]1C1=CC[C@@H]3[C@@]4(C)CC[C@H](OC5OC(CO)C(O)C(O)C5OC5OC(CO)C(O)C(O)C5O)C(C)(C)[C@@H]4CC[C@@]3(C)[C@]1(C)CC2 (stereo not given in full)	33.8 µM	15.6 µM	22.4 µM		48.3 µM			
O=C1/C(=C/c2ccccc2)N=C(c2ccccc2)N1C1Nc2cc3c(cc2S1)NC(N1C(=O)/C(=C/c2ccccc2)N=C1c1ccccc1)S3 (stereo not given)	> 100 µM	> 100 µM	> 100 µM	> 100 µM	68.4 µM			
COc1c(C)c(C/C=C(\C)CCCCO)c(OC)c(OC)c1OC	> 100 µM	> 100 µM	> 100 µM	> 100 µM	35.4 µM			
O=C(NCCNCCNCCNC(=O)c1cc(-c2ccccc2)nc2ccccc12)c1cc(-c2ccccc2)nc2ccccc12	> 20.5 µM	13.8 µM	8.11 µM	3.85 µM	6.51 µM			
COc1ccccc1N1C(=O)CS(=O)(=O)C1c1cccc(Oc2ccccc2)c1 (stereo not given)	> 100 µM	38.6 µM	41.2 µM	32.6 µM				
NC1=CN(Cc2ccccc2)C2=N/C(=C\c3ccccc3)C(=O)N12	> 100 µM	> 100 µM	> 100 µM	> 100 µM	> 100 µM			
C[C@H]1CCCCC[C@@H]2CC(=O)CC2C(=O)CCC(=O)O1 (stereo not given in full)	> 100 µM	> 100 µM	> 100 µM	> 100 µM	> 100 µM			
O=C1c2cscc2C(=O)C1(O)O	52.9 µM	> 100 µM	67.5 µM	> 100 µM	> 100 µM			
Cc1cc(C)n(-c2nc3ccccc3c(=O)n2-c2ccccc2)n1	> 100 µM	> 100 µM	> 100 µM	> 100 µM				
O=C(O)c1nc2ccccc2nc1Nc1ccc(F)cc1	79.9 µM	> 100 µM	77.5 µM	60 µM	> 100 µM			
CO[C@@H]1C=C[C@@]23c4cc5c(cc4C(O)N(CC2O)C3C1)OCO5 (stereo not given in full)	5.38 µM	19.4 µM	58.8 µM	> 100 µM	> 100 µM			
COc1ccc(N2C(=O)c3cccnc3S2(=O)=O)cc1	> 100 µM	> 100 µM	> 100 µM	> 100 µM	> 100 µM			

Compound	TGI (CCRF-CEM leukemia)	TGI (OVCAR-4 ovarian)	TGI (OVCAR-3 ovarian)	TGI (SF-539 CNS)	TGI (RPMI-8226 leukemia)	GI50 (OVCAR-3 ovarian) [µM]	GI50 (SF-539 CNS) [µM]	GI50 (CCRF-CEM leukemia) [µM]
OCc1ccc2c(c1)CC1(C2)Cc2cc3c(cc2C1)CCC3	> 100 µM	> 100 µM	> 100 µM	> 100 µM	> 100 µM			
CCOC(=O)CCC(NC(=O)c1ccc(Nc2nc3ccccc3n3cccc23)cc1)C(=O)OCC (stereo not given)	> 100 µM		44.6 µM	34.6 µM	> 100 µM			
CCN1C(=O)c2ccccc2C1(O)c1ccc(Cl)cc1 (stereo not given)	> 100 µM	> 100 µM	> 100 µM	> 100 µM	> 100 µM			
COc1cc2c(cc1OC)C1CCc3ccccc3CN1CC2 (stereo not given)	> 100 µM	> 100 µM	> 100 µM	> 100 µM				
Nc1ccc2cc3[nH]c4cc(N)ccc4c3nc2c1		3.02 µM	2.69 µM	1.4 µM	> 100 µM			
COc1ccc2oc(=O)c3c(c2c1C)OC(C)(C)C=C3	> 100 µM		> 100 µM	> 100 µM	> 100 µM			
NCCCCN(CCCN)Cc1ccccc1	> 100 µM	> 100 µM	> 100 µM	> 100 µM	> 100 µM			
N#Cc1c(N)c2c(c(-c3ccccc3)c1-c1ccccc1)C(=O)N(NC(=O)c1ccccc1)C2=O	> 100 µM	> 100 µM	> 100 µM	> 100 µM	> 100 µM			
CC(C)C1SCc2nc3ccccc3n21 (stereo not given)	> 100 µM	> 100 µM	> 100 µM	> 100 µM	> 100 µM			
CC(C)[Si](OC1=C(C(=O)N(C)c2ccccc2Cl)CCCC1)(C(C)C)C(C)C	29.7 µM	28.9 µM	27.5 µM	32.7 µM	55.4 µM			
COc1cc2nc(-c3ccccc3F)[nH]c(=O)c2cc1OC	> 100 µM	> 100 µM	> 100 µM		> 100 µM			
Cc1ccc(C(CC(=O)C(C)(C)CN2CCCCC2)SCCS(=O)(=O)O)cc1 (stereo not given)	45.9 µM	84.3 µM	49.5 µM	49.1 µM	48.1 µM			
COc1ccc(OC)c(C#Cc2ccc(OC)c(C(=O)NCCc3ccc(F)cc3)c2)c1	> 100 µM	> 100 µM			> 100 µM			4.72
COc1ccc2oc(=O)c(CC=C(C)C)c(O)c2c1C	> 100 µM		> 100 µM	> 100 µM	> 100 µM			
COCOCC1CCCN1CN1CCC[C@H]1COCOC (stereo not given in full)	> 100 µM	> 100 µM	> 100 µM		99.5 µM			
CC(C)=C[C@@H]1C[C@H](C)c2c(O)cc(C)c3c2C1=C(C)C(=O)C3=O	47.2 µM	23.4 µM	32.1 µM	32.3 µM	41.6 µM			
CSCCCNC(=O)c1csc(-c2csc(CCN)n2)n1	> 100 µM	> 100 µM	> 100 µM	> 100 µM	> 100 µM			
CN(C)c1nc(=NCc2cccs2)ss1	1.83 µM	> 10 µM	> 10 µM	> 10 µM	> 10 µM			
O=C(Nc1sccc1S(=O)(=O)c1ccc(Cl)cc1)C(F)(F)F		> 100 µM	> 100 µM	93.7 µM	31.4 µM			
CCCNC(C#N)c1ccc(OCCCCCCCCCCOc2ccc(C(C#N)NCCC)cc2)cc1 (stereo not given)	43.7 µM	> 100 µM	81.1 µM	> 100 µM				
CC[C@H](C)C1=C(O)[N@+]2([O-])Oc3ccc(-c4c(O)c(O)c(-c5ccc(OC(C)=O)cc5)c(OC(C)=O)c4OC(C)=O)cc3O[C@]2([C@@H](C)CC)C(=O)N1O	23.8 µM	31.5 µM	> 50 µM	> 50 µM	42 µM			
